{"source": "patent US20260306500A1", "about": "“METHOD OF INHIBITING ADENOSINE TRIPHOSPHATE SECRETION, METHOD OF INHIBITING HEPATIC STELLATE CELL ACTIVATION, METHOD OF DEACTIVATING HEPATIC STELLATE CELL, METHOD OF TREATING HEPATIC FIBROSIS, METHOD OF TREATING NON-ALCOHOLIC STEATOHEPATITIS, AND METHOD OF TREATING PSORIASIS” (Kurume University, priority 2023, published 2026)", "key": {"V-ATPase [1]": {"target": "T1, V-ATPase (Bos taurus, UniProt P31404+P31408)", "T1 construct": "Chromaffin granule membranes were prepared from adrenal glands collected from slaughtered cattle; from tissue; host or cells: cattle adrenal glands, chromaffin granule membranes (sucrose density gradient)", "T1 sequence (P31404 whole entry, looked up)": "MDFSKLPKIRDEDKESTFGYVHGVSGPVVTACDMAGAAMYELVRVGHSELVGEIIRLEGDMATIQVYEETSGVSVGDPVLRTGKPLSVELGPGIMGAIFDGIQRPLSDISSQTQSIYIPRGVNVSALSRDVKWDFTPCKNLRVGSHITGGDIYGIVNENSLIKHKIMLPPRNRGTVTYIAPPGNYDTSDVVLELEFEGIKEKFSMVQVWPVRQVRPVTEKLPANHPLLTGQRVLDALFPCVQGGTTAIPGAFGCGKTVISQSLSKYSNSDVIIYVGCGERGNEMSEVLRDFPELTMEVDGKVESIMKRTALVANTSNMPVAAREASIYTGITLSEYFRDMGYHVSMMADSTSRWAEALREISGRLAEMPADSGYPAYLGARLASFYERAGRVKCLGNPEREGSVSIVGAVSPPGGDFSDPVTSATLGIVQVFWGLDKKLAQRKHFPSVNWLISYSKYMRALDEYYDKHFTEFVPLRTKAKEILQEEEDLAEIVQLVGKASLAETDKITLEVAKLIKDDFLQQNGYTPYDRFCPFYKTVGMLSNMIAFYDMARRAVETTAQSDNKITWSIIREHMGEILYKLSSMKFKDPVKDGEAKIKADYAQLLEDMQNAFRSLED", "T1 sequence (P31408 whole entry, looked up)": "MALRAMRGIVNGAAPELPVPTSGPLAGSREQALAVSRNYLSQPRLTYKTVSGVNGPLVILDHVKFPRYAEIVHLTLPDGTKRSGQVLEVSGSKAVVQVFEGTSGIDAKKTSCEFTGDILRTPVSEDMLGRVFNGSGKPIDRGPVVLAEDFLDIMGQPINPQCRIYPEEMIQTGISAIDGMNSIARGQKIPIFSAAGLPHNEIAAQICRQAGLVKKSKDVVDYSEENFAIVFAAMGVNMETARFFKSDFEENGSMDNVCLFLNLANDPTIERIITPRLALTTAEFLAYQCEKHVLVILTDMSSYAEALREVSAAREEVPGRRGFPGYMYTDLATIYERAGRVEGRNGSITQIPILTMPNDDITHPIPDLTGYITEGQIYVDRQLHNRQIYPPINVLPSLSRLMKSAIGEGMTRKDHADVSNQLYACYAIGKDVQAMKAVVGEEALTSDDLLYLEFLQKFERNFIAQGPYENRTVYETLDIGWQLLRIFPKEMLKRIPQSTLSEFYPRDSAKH", "assay": "ATP-dependent proton transport by V-ATPase (acridine orange fluorescence quenching)", "assay_type": "biochemical, cattle", "conditions": "role: substrate; addition of ATP, relative to before addition, N=2", "experimental": "(§1) Chromaffin granule membranes were prepared from adrenal glands collected from slaughtered cattle according to Reference A (Nathan Nelson et al., 1988, Chromaffin Granule Proton Pump, Methods in Enzymology, 157, 619-633). Chromaffin granule membranes prepared by sucrose density gradient centrifugation were suspended in 2 ml of SME buffer (20 mM MOPS-tris (pH 7.0), 0.3 M sucrose, 5 mM EDTA, 10 μg/ml leupeptin, and 10 μg/ml pepstatin)+25% glycerol, and the resulting suspension was aliquoted and stored at −80° C. Under these conditions, the ATP transport activity, the V-ATPase activity, and the catecholamine transport activity remain fully active for at least one year.\nATP-dependent proton transport by V-ATPase was measured according to Reference B. Proton transport activity was measured using a spectrofluorometer at excitation wavelength of 492 nm and a fluorescence wavelength 540 nm, wherein fluorescence quenching of acridine orange was used as an index (N=2). The transmembrane potential generated was measured using a spectrofluorometer at an excitation wavelength of 580 nm and a fluorescence wavelength of 630 nm, wherein fluorescence quenching of oxonol-V was used as an index (N=2). The acridine measurement liquid (2 ml) contained 20 mM MOPS-tris (pH 7.0), 0.2 M sucrose, 0.1 M potassium chloride, 5 mM magnesium acetate, 0.2 μg valinomycin, 2 μM acridine orange, and about 20 μg of chromaffin granules. The oxonol-V measurement liquid (2 ml) contained 20 mM MOPS-tris (pH 7.0), 0.3 M sucrose, 5 mM magnesium acetate, 5 μM oxonol-V, and about 20 μg of chromaffin granules.\n(§2) Chromaffin granule membrane vesicles were prepared in the same manner as in Example 5, and uptake of radiolabeled ATP into the vesicles was measured. Transport activity of catecholamine (dopamine) and ATP-dependent proton transport by V-ATPase were also measured in the same manner as in Example 5."}, "V-ATPase [2]": {"target": "T1, V-ATPase", "assay": "Transmembrane potential generated (oxonol-V fluorescence quenching) in chromaffin granules", "assay_type": "biochemical, cattle", "conditions": "role: substrate; addition of ATP, relative to before addition, N=2", "experimental": "as §1\nATP-dependent proton transport by V-ATPase was measured according to Reference B. Proton transport activity was measured using a spectrofluorometer at excitation wavelength of 492 nm and a fluorescence wavelength 540 nm, wherein fluorescence quenching of acridine orange was used as an index (N=2). The transmembrane potential generated was measured using a spectrofluorometer at an excitation wavelength of 580 nm and a fluorescence wavelength of 630 nm, wherein fluorescence quenching of oxonol-V was used as an index (N=2). […]"}, "mouse liver": {"system": "mouse liver", "assay": "Thioacetamide-induced hepatic fibrosis in mice: histology, immunostaining and fibrosis score", "assay_type": "in vivo", "conditions": "TAA 50 mg/kg i.p. three times per week", "experimental": "Wild-type mice, […] (manufactured by Charles River Japan), were housed on a 12-hour light/dark cycle and fed a standard solid diet (5.4% fat, CRF-1, manufactured by Oriental Yeast Co., Ltd.) ad libitum. Thioacetamide (TAA, manufactured by FUJIFILM Wako Pure Chemical Corporation) was dissolved in physiological saline at 0.9% w/v. Eight-week-old mice were randomly assigned to three groups and continuously treated for 9 weeks according to the following scheme. At Week 9, all mice were euthanized 1 hour after administration of physiological saline or IMG.\nNormal control group (N=6): Physiological saline was intraperitoneally administered to mice three times per week. Eight hours after each administration, a vehicle was orally administered to the mice.\nTAA group (N=6): TAA (50 mg/kg, intraperitoneal) was administered to mice. Eight hours thereafter, physiological saline was orally administered to the mice. This treatment was performed three times per week for a total of 9 weeks.\nTAA+IMG group (N=6): During the first week, physiological saline was orally administered to mice. Thereafter, imeglimin (IMG) at 200 mg/kg was orally administered three times per week for 8 weeks. The administration of IMG was performed 8 hours after intraperitoneal administration of TAA (50 mg/kg).\n(§3) For immunohistochemical analysis, liver samples were fixed in 4% paraformaldehyde, embedded in paraffin, and then sectioned. The sections were stained with HE or PSR. In addition, the paraffin-embedded sections were subjected to immunostaining using an α-SMA monoclonal antibody (1:500, catalog No. A5228, manufactured by Sigma-Aldrich) and an F4/80 monoclonal antibody (1:200, catalog No. MCA497GA, manufactured by AbD Serotec). The cell specimens were observed using a microscope (BZ-X700 series, manufactured by Keyence) or a confocal laser microscope (FV1000, manufactured by Olympus Corporation). The number of F4/80-positive cells was counted in four high-power fields per section. The α-SMA-positive area and the PSR-positive area were quantified using the image analysis software Fiji-ImageJ (1.54f).\nA histological score was determined by a blinded investigator using the NAFLD histological scoring system of the Nonalcoholic Steatohepatitis Clinical Research Network. The total NAFLD activity score (NAS) was calculated from the total of the individual scores for steatosis ([…]), lobular inflammation (F4/80), and hepatocyte ballooning. The range of each parameter was 0 to 2 (ballooning) or 3 (the other two scores), where 0 indicates normal and 2 or 3 indicates severe. Staging of fibrosis was based on the NASH fibrosis stages, and a fibrosis stage ranging from 0 to 4 was determined according to Reference H (David E. Kleiner et al., 2005, Design and validation of a histological scoring system for nonalcoholic fatty liver disease, Hepatology, 41, 1313-1321).\nAll results are expressed as the mean±standard error of the mean (S.E.M.). Statistical analyses were performed using GraphPad Prism 7.0 (GraphPad Software). Significance upon comparison between two groups was evaluated by an unpaired two-tailed Student's t-test. […]. Statistical significance among three or more groups was determined by two-way analysis of variance (ANOVA) with Tukey's or Dunnett's post hoc test. Coloc2 was used to perform image analysis, automatic thresholding, and pixel intensity correlation for statistical processing. Statistical significance was assumed when the P value was <0.05."}, "[3]": {"system": "α-SMA-positive cells (stellate cells) in mouse liver", "assay": "TAA-induced activation of HSCs in mice: α-SMA immunostaining of liver sections", "assay_type": "in vivo", "from_the_text": "as §3\nIn accordance with Example 15, immunostaining of α-SMA in liver sections and observation by fluorescence microscopy were performed for the normal control group, the TAA group, and the TAA+IMG group, and for a TAA+Clo group, which was treated in the same manner as the TAA+IMG group except that clodronate, instead of imeglimin, was administered at 30 mg/kg by blending it in the drinking water from 1 week after the start of TAA administration."}, "keratinocytes": {"system": "keratinocytes", "assay": "Imiquimod-induced ATP secretion in keratinocytes", "assay_type": "cell-based, human", "conditions": "imiquimod 1 μg/ml or 0.5 μg/ml, 15 minutes, N=8 (FIG. 32)", "experimental": "In the same manner as in Example 1, keratinocytes were cultured at 2.5×10^4 cells/well in a 24-well plate at 37° C. in 5% CO2 for 4 days. The medium was replaced with HBSS (manufactured by Gibco) supplemented with 1 μM or 10 μM imeglimin, and incubation was performed at 37° C. in 5% CO2 for 18 hours. Thereafter, imiquimod was added thereto at 1 μg/ml or 0.5 μg/ml, and incubation was performed for 15 minutes, followed by collection of 200 μl of the supernatant. The supernatant was immediately treated on a heat block at 95° C. for 10 minutes, and ATP in the supernatant was quantified using a ATP Assay Kit—Luminescence (manufactured by Dojindo) (N=8)."}, "mouse auricle [4]": {"system": "mouse auricle", "assay": "Imiquimod-induced psoriasis model, oral imeglimin (Example 18)", "assay_type": "in vivo", "conditions": "62.5 mg of 5% imiquimod cream daily, Days 1 to 7 (disease inducer)", "experimental": "Experimental psoriatic symptoms were induced in a mouse auricle by imiquimod. Six-week-old male C57BL/6 mice (N=5) were acclimated for one week. On Days 1 to 7, 62.5 mg of 5% imiquimod cream (Beselna Cream 5%) (3.125 mg in terms of the active ingredient, manufactured by Mochida Pharmaceutical Co. Ltd.) was applied to the right auricle of the mice for 7 consecutive days (IMQ group). Once daily after the imiquimod application, the imeglimin administration group (IMQ+IMG group) received oral administration, at 40 mg/kg, of 500-mg Twymeeg (trademark) tablets (manufactured by Sumitomo Pharma Co. Ltd.) dissolved in physiological saline. The control group received an equal volume of physiological saline. On Day 8, the mice were euthanized by cervical dislocation, and auricle thickness was measured using a dial thickness gauge (manufactured by Adachi Sogyo Co., Ltd.).\nEach excised mouse auricle was fixed in 4% paraformaldehyde at 4° C. overnight. After ethanol substitution, the auricle was embedded in paraffin, sectioned using a rotary microtome Leica RM2165 (thickness, […]), and subjected to HE staining or immunohistochemical staining. For the immunohistochemical staining, the sections were deparaffinized, washed in xylene, and rehydrated through graded alcohols. The sections were incubated in DAKO at 95° C. for 30 minutes. The sections were blocked at room temperature for 60 minutes and then incubated at room temperature for 2 hours to allow reaction with a TGM1 anti-rabbit polyclonal antibody (catalog number 12912-3-AP, manufactured by Proteintech). The sample was washed and then allowed to react with a secondary antibody (Alexa 544-conjugated secondary antibody (goat anti-rabbit IgG) (manufactured by Molecular Probes)) at room temperature for 60 minutes. After allowing reaction with DAPI at room temperature for 10 minutes, the sections were mounted with Fluoromount and imaged using a fluorescence microscope (BZ-X710, manufactured by Keyence)."}, "mouse auricle [5]": {"system": "mouse auricle", "assay": "Imiquimod-induced psoriasis relapse model (Example 20)", "assay_type": "in vivo", "conditions": "5% imiquimod cream resumed on Day 23, vs first induction", "experimental": "To the left auricle of each mouse, 62.5 mg of 5% imiquimod cream (Beselna Cream 5%) was applied once daily a total of seven times (Days 1 to 7) in accordance with Example 19 to induce imiquimod-induced psoriasis. Thereafter, the imiquimod treatment was interrupted, and imeglimin (40 mg/kg) was orally administered on alternate days for 2 weeks (Day 8 to 22) (IMG). Mice without administration of imeglimin were designated IMQ. On Day 23, the imiquimod treatment was resumed, and 62.5 mg of 5% imiquimod cream (Beselna Cream 5%) was applied once daily a total of […]. In parallel, imeglimin (40 mg/kg) was orally administered daily to IMG."}, "[6]": {"system": "catecholamine transport of chromaffin granule membranes", "assay": "Catecholamine (dopamine) transport in chromaffin granule membranes", "assay_type": "biochemical, cattle", "conditions": "role: inhibitor; 1 μM reserpine", "experimental": "as §1\nA catecholamine transport inhibition experiment was carried out in the same manner as the ATP transport experiment except that the experiment used a measurement liquid containing 20 mM MOPS-tris (pH 7.0), 0.1 M sucrose, 0.1 M potassium chloride, 5 mM magnesium acetate, and about 5 μg of chromaffin granule membranes. To 0.5 ml of the measurement liquid, 2 mM ATP was added, and the resulting mixture was incubated at 30° C. for about 5 minutes, followed by addition of 3[H]-dopamine thereto to a final concentration of 10 μM. After further incubation at 30° C. for 15 minutes, 0.2 ml of the reaction liquid was subjected to suction filtration through a Millipore MCE membrane filter with a pore size of 0.45 μm, and the radioactivity on the filter was measured (N=3). The substrate, 3[H]-dopamine, was prepared by mixing 3,4-[RING-2,5,6-^3H]dihydroxyphenylethylamine (dopamine) (30 Ci/mmol) (manufactured by New England Nuclear) with dopamine hydrochloride (manufactured by LKT Laboratories) such that a final concentration of […] was achieved during the use.\nas §2"}}, "data": [{"smiles": "Nc1ncnc2c1ncn2[C@@H]1O[C@H](COP(=O)(O)OP(=O)(O)OP(=O)(O)O)[C@@H](O)[C@H]1O", "note": "[ATP, adenosine triphosphate]", "values": [{"measurement": "quenching of acridine orange fluorescence", "setting": "V-ATPase [1]", "value": 62, "unit": "%"}, {"measurement": "quenching of oxonol-V fluorescence", "setting": "V-ATPase [2]", "value": 40, "unit": "%"}]}, {"smiles": "CC(=N)S", "note": "[TAA, Thioacetamide]", "values": [{"measurement": "reaction of F4/80-positive macrophages", "setting": "mouse liver; 9 weeks (disease inducer)", "value": "markedly increased"}, {"measurement": "α-SMA-positive reaction", "setting": "mouse liver; 9 weeks (disease inducer)", "value": "markedly increased"}, {"measurement": "HE-stained liver tissue", "setting": "mouse liver; 9 weeks, vs normal control", "value": "destruction of the lobular structure, hepatocyte ballooning, and inflammatory cell infiltration"}, {"measurement": "fibrosis score", "setting": "mouse liver; 9 weeks, vs normal control (FIG. 28)", "value": "markedly increased"}, {"measurement": "α-SMA-positive reaction throughout the mouse liver", "setting": "[3]; TAA 50 mg/kg i.p. (FIG. 29)", "value": "increased markedly"}, {"measurement": "α-SMA-positive area fraction", "setting": "[3]; TAA group (disease inducer, 50 mg/kg i.p.), four measurements, normal control 0.14±0.01", "value": "2.79±0.33"}]}, {"smiles": "CC(C)Cn1cnc2c(N)nc3ccccc3c21", "note": "[imiquimod]", "values": [{"measurement": "ATP secretion from the keratinocytes", "setting": "keratinocytes", "value": "markedly promoted"}, {"measurement": "auricle thickening", "setting": "mouse auricle [4]", "value": "auricle thickening induced"}, {"measurement": "psoriatic symptoms in the epidermis", "setting": "mouse auricle [4]", "value": "caused psoriatic symptoms in the epidermis, leading to partial desquamation"}, {"measurement": "psoriatic symptoms on resumed treatment", "setting": "mouse auricle [5]", "value": "induced more rapidly and more strongly than at the first induction"}]}, {"smiles": "COC(=O)[C@H]1[C@H]2C[C@@H]3c4[nH]c5cc(OC)ccc5c4CCN3C[C@H]2C[C@@H](OC(=O)c2cc(OC)c(OC)c(OC)c2)[C@@H]1OC", "note": "[reserpine]", "values": [{"measurement": "ATP-dependent dopamine transport", "setting": "[6]", "value": "almost completely blocked"}]}]}
